# Legend:
# Type in all cases: cell-based
# [1] = SRB cytotoxicity assay, HepG2 cells; conditions: human, read-out: In vitro cytotoxic effect IC50, HepG2
# Method: (§1) The cell lines used in this study were purchased from the National Cancer Institute, Cairo, Egypt and maintained in Dulbecco’s Modified Eagle Medium/F-12 (DMEM⁄F12, Sigma-Aldrich, USA), supplemented with 2 mM L-glutamine (Lonza, Belgium) and 10% fetal bovine serum (FBS, Sigma-Aldrich, MO, USA), 1% penicillin-streptomycin (Lonza, Belgium). All cells were cultured following routine tissue culture work, and treated with serial concentrations of the compounds for 48 h. Absorbance was subsequently measured (at 570 nm) using ELISA microplate reader (BIO-RAD, model iMark, Japan). The viability was calculated relative to a control and the IC50 values were determined using the non-linear regression curve fit, as previously reported in [44]
# (§2) The cytotoxic activities of the isolated compounds against HepG2, VERO E6, MCF-7 and HCT-116 cells were tested using the sulforhodamine-B (SRB) assay and the results are represented in figure e and Table 2.
# MCF-7 cells [2] = assay: SRB cytotoxicity assay, MCF-7 cells; conditions: Homo sapiens, MCF7, 48 h, read-out: IC50 against MCF-7 cells
# Method: as §1, §2
# HCT-116 cells = assay: SRB cytotoxicity assay, HCT-116 cells; conditions: Homo sapiens, 48 h, read-out: IC50 against HCT-116 cells
# Method: as §1, §2
# [3] = SRB cytotoxicity assay, Vero normal cells; conditions: African green monkey, Vero E6 cells (normal cells), read-out: In vitro cytotoxic effect IC50, Vero
# Method: as §1, §2
# Vero cells = assay: SRB cytotoxicity assay, Vero normal cells; conditions: 48 h, read-out: In vitro cytotoxic effect IC50, Vero
# Method: as §1, §2
# MCF-7 cells [4] = assay: Annexin V/PI staining, flow cytometry (apoptosis); conditions: 48 h
# Method: (§3) Apoptosis rate in cells was quantified using annexin V-FITC (BD Pharmingen, San Diego, CA, USA). MCF-7 cells were seeded into 6-well culture plates (3–5 × 10^5 cells/well) and incubated overnight. The cells were then treated with compound 1 for 48 h. Next, media supernatants and cells were collected and rinsed with ice-cold PBS. The next step was suspending the cells in 100 µL of annexin binding buffer solution 25 mM CaCl2, 1.4 M NaCl, and 0.1 M Hepes/NaOH, pH 7.4 and incubation with annexin V-FITC solution (1:100) and propidium iodide (PI) at a concentration of 10 µg/mL in the dark for 30 min. Stained cells were then acquired by a Cytoflex FACS machine. Data were analyzed using cytExpert software v.2.3.
# MCF-7 cells [5] = assay: DNA content flow cytometry cell cycle analysis; conditions: 4.26 μM, 48 h
# Method: Cell cycle analysis is an important test that determines the percentages of the cell population that are in each cell phase.. In this studyMCF-7 cancer cells were treated with compound 1, and then subjected to DNA flow cytometry to determine the stage where cell proliferation was arrested in the cell cycle.
# as §3
# BAX = assay: ELISA assay for apoptotic marker BAX in MCF-7 cells; conditions: 4.26 μM, 48 h, control 43.6 pg/mL
# Excerpt: (§4) To further investigate the apoptotic pathway of compound 1 in both untreated and treated MCF-7 cells, we investigated the enzymatic assays for apoptotic markers BAX (EIA-4487, DRG International®, Springfield, NJ, USA) and caspase-9 (EIA-4860, DRG International®, USA) as proapoptotic genes and BCL2 (Cat. No. 99-0042, Zymed®, CA, USA) as the anti-apoptotic gene, following the manufacturer’s instructions.
# caspase-9 = assay: ELISA assay for apoptotic marker caspase-9 in MCF-7 cells; conditions: 4.26 μM, 48 h, control 5.16 pg/mL
# Excerpt: as §4
# BCL2 = assay: ELISA assay for anti-apoptotic marker BCL2 in MCF-7 cells; conditions: 4.26 μM, 48 h, control 7.59 ng/mL
# Excerpt: as §4
SMILES,IC50 at 48 h [1],IC50 (MCF-7 cells [2]),IC50 (HCT-116 cells),IC50 at 48 h [3],also measured
"COc1cc2cc(Oc3ccc4ccc(=O)oc4c3)c(=O)oc2cc1OC(C)=O [Compound 5, acetyldaphnoretin]",9.4 µM,46.4 µM,24.4 µM,–,–
"O=c1ccc2ccc(Oc3cc4cc(O)c(O)cc4oc3=O)cc2o1 [Compound 6, edgeworthin]",32.5 µM,–,–,> 148 µM,–
"O=C1c2c(O)cc(O)cc2OC(c2ccc(O)cc2)C1Oc1ccc(C2Oc3cc(O)cc(O)c3C(=O)C2C2C(=O)c3c(O)cc(O)cc3OC2c2ccc(O)cc2)cc1 (centres unmarked) [Compound 1, 2-(4-((5,7-dihydroxy-2-(4-hydroxyphenyl)-4-oxochroman-3-yl)oxy)phenyl)-5,5′,7,7′-tetrahydroxy-2′-(4 hydroxyphenyl)-[3,3′-bichromane]-4,4′-dione]",8.6 µM,4.26 µM,9.6 µM,> 50 µM,"IC50 (Vero cells): 56.6 µM; apoptotic cell death increase (MCF-7 cells [4]; MCF-7 cells treated at IC50 = 4.26 μM, versus untreated control): 14.97 fold; Apoptosis Late (MCF-7 cells [4]; MCF-7 cells, 4.26 μM, control 0.23%): 22.52%; Apoptosis Early (MCF-7 cells [4]; MCF-7 cells, 4.26 μM, control 0.61%): 2.44%; Apoptosis Total (apoptosis ratio) (MCF-7 cells [4]; MCF-7 cells, 4.26 μM, control 2.71%): 40.57%; Pre-G1 cell population (MCF-7 cells [5]; control 2.71%): 40.57%; change in cell population in G0/G1, S or G2/M phase (MCF-7 cells [5]; versus control): no significant change; BAX level (BAX): 362 pg/mL; caspase-9 level (caspase-9): 21.14 pg/mL; BCL2 level (BCL2): 2.85 ng/mL"
"COc1cccc2c1C(=O)c1c(O)c3c(c(O)c1C2=O)C[C@@](O)(C(=O)CO)C[C@@H]3O[C@H]1C[C@H](N)[C@H](O)[C@H](C)O1 [Doxo, Doxorubicin, reference compound]",7.7 µM,–,–,45.8 µM,–
"COc1cc2oc(=O)c(Oc3ccc4ccc(=O)oc4c3)cc2cc1O [Compound 3, rutamontine]",29.8 µM,–,–,> 142 µM,–
"O=C(C=Cc1ccc(O)cc1)OCC1OC(Oc2c(-c3ccc(O)cc3)oc3cc(O)cc(O)c3c2=O)C(O)C(O)C1O (stereo not drawn) [Compound 8, trans-tiliroside]",15.1 µM,–,–,50.5 µM,–
"COc1cc2cc(Oc3ccc4ccc(=O)oc4c3)c(=O)oc2cc1OC [Compound 2, daphnoretin methyl ether]",12.3 µM,66.1 µM,101 µM,–,–
"O=C(O)c1ccc(O)cc1 [Compound 9, p-hydroxy benzoic acid]",32.6 µM,–,–,203 µM,–
"COc1cc2cc(O)c(=O)oc2cc1Oc1ccc2ccc(=O)oc2c1 [Compound 4, neodaphnoretin]",27.2 µM,–,–,124 µM,–
